Laboratory results reported in patent US9937115B2, “Oral care compositions with improved flavor” (priority 2010, dated 2018).
Counter-ions that a name gives are not always drawn. Like-named read-outs stand apart in the source and are kept apart here.

Target: T1, TRPA1 receptor (Homo sapiens, UniProt O75762)
T1 construct: expressed in transfected cells; host or cells: HEK cell line
Experiment: cell-based
Set-up: activation: dose or concentration left out as unconfirmed
Protocol: The term “TRPA1 activator” as used herein refers to any component which at a concentration of 1 mM gives a calcium flux count of at least 1000 counts above the background level of calcium present in the cell according to the FLIPR method as discussed herein. The term “count” is defined as the change in fluorescence of the transfected cell lines due to the influx of calcium across the cell membrane, which reacts with the calcium sensitive dye present within the cells.
In order to select TRPA1 agonists that would be preferred for reducing off-tasting chemical components found in oral care compositions, calcium flux receptor activity on the TRPA1 was utilized as the criteria for selection of actives. With allyl isothiocyanate as the TRPA1 positive control, molecules that directly activated the TRPA1 receptor were screened in dimethylsulfoxide (DMSO). Pure molecules of each material were dissolved in DMSO at a concentration of 100 micormolar and then added to an HEK cell line containing the TRPA1 receptor. If they are TRPA1 agonists, they will cause a calcium flux in the cell which fluoresces and may then be measured using a FLIPR machine.

[1] = HEK293, percentage of the control (allyl isothiocyanate) calcium count, material dissolved in DMSO at 100 micromolar, HEK cells with TRPA1, direct addition, read-out: TRPA1 Direct addition
[2] = HEK293, percentage of the control (allyl isothiocyanate) calcium count, material dissolved in DMSO at 100 micromolar, HEK cells with TRPA1, pre-incubation, read-out: TRPA1 Pre-incubation
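Wherever TRPA1 Pre-incubation is given: values above 100 mean more active than the control.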

T1 sequence (O75762 whole entry): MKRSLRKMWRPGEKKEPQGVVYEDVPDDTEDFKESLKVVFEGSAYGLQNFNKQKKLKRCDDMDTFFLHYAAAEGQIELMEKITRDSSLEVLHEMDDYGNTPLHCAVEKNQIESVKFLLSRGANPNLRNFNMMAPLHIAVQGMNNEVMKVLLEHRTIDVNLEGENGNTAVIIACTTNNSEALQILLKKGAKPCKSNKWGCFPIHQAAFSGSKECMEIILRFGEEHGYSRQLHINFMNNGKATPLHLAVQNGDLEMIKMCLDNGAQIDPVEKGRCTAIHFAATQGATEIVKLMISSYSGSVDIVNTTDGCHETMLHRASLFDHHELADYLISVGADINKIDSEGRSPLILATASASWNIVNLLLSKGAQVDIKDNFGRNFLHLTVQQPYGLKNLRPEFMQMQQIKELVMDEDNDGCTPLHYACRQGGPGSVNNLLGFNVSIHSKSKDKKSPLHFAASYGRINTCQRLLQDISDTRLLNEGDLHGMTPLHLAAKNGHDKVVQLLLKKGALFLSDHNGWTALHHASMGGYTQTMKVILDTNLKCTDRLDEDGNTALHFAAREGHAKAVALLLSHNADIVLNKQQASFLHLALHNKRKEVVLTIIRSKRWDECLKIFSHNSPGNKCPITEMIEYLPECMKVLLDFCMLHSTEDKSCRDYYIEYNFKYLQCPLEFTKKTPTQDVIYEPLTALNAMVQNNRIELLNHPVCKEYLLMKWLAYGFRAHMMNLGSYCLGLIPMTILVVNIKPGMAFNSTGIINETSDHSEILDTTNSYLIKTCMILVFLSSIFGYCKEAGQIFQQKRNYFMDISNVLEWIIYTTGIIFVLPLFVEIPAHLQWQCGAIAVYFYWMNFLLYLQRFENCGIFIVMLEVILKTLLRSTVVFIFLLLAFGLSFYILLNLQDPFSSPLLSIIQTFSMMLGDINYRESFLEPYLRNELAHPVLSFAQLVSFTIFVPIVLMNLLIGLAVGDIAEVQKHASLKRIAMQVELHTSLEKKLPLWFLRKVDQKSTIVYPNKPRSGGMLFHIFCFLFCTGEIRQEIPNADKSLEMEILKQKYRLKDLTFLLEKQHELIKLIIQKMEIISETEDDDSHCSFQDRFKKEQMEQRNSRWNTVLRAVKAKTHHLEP

CCc1ncc(C)nc1CC [2,3-Diethyl-5-Methylpyrazine]
activation at 100 µM [1]: 0.99%
activation [2]: 76.9%

COC(C=C(C)CCC=C(C)C)OC [Citral Dimethyl Acetal]
activation at 100 µM [1]: 0.16%
activation [2]: 78%

CC(C)=CC=O [3-Methyl-2-Butenal]
activation at 100 µM [1]: 34.4%
activation [2]: 66.3%

CCOCc1ccccc1 [Benzyl Ethyl Ether]
activation at 100 µM [1]: -2.24%
activation [2]: 66.2%

CC/C=C\CCCCC=O [cis-6-Nonenal]
activation at 100 µM [1]: 2.76%
activation [2]: 74.7%

CC1=CC(=O)[N-]S(=O)(=O)O1.[K+] [Acesulfame K]
TRPA1 Direct addition: −0.12%
TRPA1 Pre-incubation: 95.57%

CCCCCC/C=C/CO [Trans-2-Nonen-1-ol]
activation at 100 µM [1]: -0.49%
activation [2]: 115%

CCCCCCCCCCCC(=O)OCC [Ethyl Laurate]
activation at 100 µM [1]: 0.12%
activation [2]: 75.8%

CC(C)=CCCC(C)C=O (stereo not drawn) [2,6-Dimethyl-5-Heptenal]
activation at 100 µM [1]: -0.15%
activation at 100 µM [2]: 97.6%

C=CCN=C=S [Allyl Isothiocyanate, reference compound]
activation [2]: 21.6%
% of AITC Receptor Activation (from Data in Table II) (restated in Table III from Table II): 100%

CCCCOC(=O)CC [Butyl Propionate]
activation at 100 µM [1]: -0.32%
activation [2]: 53.4%

COC(=O)c1ccccc1N [Methyl Anthranilate]
activation at 100 µM [1]: 69.6%
activation [2]: 1.27%

CCCC(=O)OC/C=C(\C)CCC=C(C)C [Geranyl Butyrate]
activation at 100 µM [1]: 0.12%
activation [2]: 61.5%

CC/C=C\CCOC(=O)CCC [cis-3-Hexenyl Butyrate]
activation at 100 µM [1]: -0.46%
activation [2]: 87.9%

CCOC(=O)c1ccccc1O [Ethyl Salicylate]
activation at 100 µM [1]: -0.53%
activation [2]: 106%

Cc1cnc(C)c(C)n1 [2,3,5-Trimethyl-pyrazine]
activation at 100 µM [1]: -1.13%
activation [2]: 48.8%

CCCCCCC(C)O (stereo not drawn) [Material 2-Octanol, 2-Octanol]
activation at 100 µM [1]: -14.1%
activation [2]: 55.3%

O=C(C=Cc1ccccc1)OCc1ccccc1 [Benzyl Cinnamate]
activation [1]: -2.39%
activation [2]: 81.1%

CC(=O)OC1CCCCC1 [Cyclohexyl Acetate]
activation at 100 µM [1]: -1.27%
activation [2]: 68.8%

CCCCCCOC(=O)C(C)CC (stereo not drawn) [Hexyl-2-Methylbutyrate]
activation at 100 µM [1]: -0.38%
activation [2]: 67.1%

CC/C=C\CCOC(=O)CCCCC [cis-3-Hexenyl Hexanoate]
activation at 100 µM [1]: 0.08%
activation [2]: 106%

O=C(c1ccccc1)C(O)c1ccccc1 (stereo not drawn) [Benzoin]
activation at 100 µM [1]: -0.5%
activation [2]: 56.2%

C=CCOC(=O)CCCCC [Allyl Hexanoate]
activation at 100 µM [1]: 0.75%
activation [2]: 88.1%

CC1=C(O)C(=O)C(C)O1 (stereo not drawn) [4-Hydroxy-2,5-Dimethyl-3(2H)-Furanone]
activation at 100 µM [1]: 2.68%
activation [2]: 72%

CC(=O)OCC(COC(C)=O)OC(C)=O [Triacetin]
activation at 100 µM [1]: -17.1%
activation [2]: 79.3%

C=CCOC(=O)CCC1CCCCC1 [Allyl Cyclohexanepropionate]
activation at 100 µM [1]: 0.45%
activation [2]: 81.7%

CCCCCCCCCC(C)=O [Material 2-Undecanone, 2-Undecanone]
activation at 100 µM [1]: 10.7%
activation [2]: 65.9%

CC(C)CCO [Isoamyl Alcohol]
activation (HEK293, read-out: TRPA1 Direct addition): -0.15%
activation (HEK293, read-out: TRPA1 Pre-incubation): 70.9%

CCCCCCCCCCC(=O)O [Undecanoic Acid]
activation at 100 µM [1]: -14.6%
activation [2]: 24.7%

CCOC(=O)C(C)CC (stereo not drawn) [Ethyl 2-Methylbutyrate]
activation at 100 µM [1]: 0.26%
activation [2]: 82%

CC/C=C\CC1=C(C)CCC1=O [Jasmone]
activation at 100 µM [1]: 46.5%
activation [2]: 51.6%

c1ccc2scnc2c1 [Benzothiazole]
activation at 100 µM [1]: -2.29%
activation [2]: 81.5%

CC(C)CCOC(=O)CC(C)C [Isoamyl Isovalerate]
activation at 100 µM [1]: 0.18%
activation [2]: 59.6%

OC/C=C/c1ccccc1 [Cinnamic Alcohol]
activation at 100 µM [1]: -1.45%
activation [2]: 84%

CCCCCC=CC=CC(=O)OCCC [Propyl 2,4-Decadienoate]
activation at 100 µM [1]: -15.7%
activation [2]: 105%

CC/C=C/C=C/C=O [Trans,trans-2,4-Heptadienal]
activation at 100 µM [1]: 119%
activation [2]: -3.68%

O=CC=Cc1ccccc1 [Cinnamaldehyde]
activation at 100 µM [1]: 114%
activation [2]: -1.2%

CCC=C(C)C(=O)O [2-Methyl-2-Pentenoic Acid]
activation at 100 µM [1]: -1.27%
activation [2]: 73.8%

CC(C)c1ccc(C=O)cc1 [Cuminaldehyde]
activation at 100 µM [1]: 25.6%
activation [2]: 72.9%

CCCCCCC(C)=O [Material 2-Octanone, 2-Octanone]
activation at 100 µM [1]: -17.1%
activation [2]: 93.3%

C=C1CC/C=C(\C)CC[C@@H]2[C@@H]1CC2(C)C [Beta-Caryophyllene]
activation at 100 µM [1]: 0.21%
activation [2]: 97.8%

CCCCOC(=O)[C@H](C)O [Butyl L-Lactate]
activation at 100 µM [1]: -0.66%
activation at 100 µM [2]: 67.3%

CC(CC=O)CC(C)(C)C (stereo not drawn) [3,5,5-Trimethyl Hexanal]
activation at 100 µM [1]: 75.7%
activation [2]: 92.2%

O=C(OCc1ccccc1)c1ccccc1 [Benzyl Benzoate]
activation at 100 µM [1]: 53.9%
activation [2]: 18.9%

CCCCCC(=O)O [Hexanoic Acid]
activation at 100 µM [1]: -0.4%
activation [2]: 67.2%

CCOC(=O)CC(C)C [Ethyl Isovalerate]
activation at 100 µM [1]: -0.05%
activation [2]: 62.8%

CC(C)=CCCC(C)=CCCC(C)=CCO [Farnesol]
activation at 100 µM [1]: 0.1%
activation [2]: 56.6%

CCCCCOC(=O)c1ccco1 [Amyl 2-Furoate]
activation at 100 µM [1]: -2.39%
activation [2]: 74.1%

CC(=O)OCCc1ccccc1 [Phenylethyl Acetate]
activation at 100 µM [1]: -22.5%
activation [2]: 93.8%

CCC(=O)OC/C=C(\C)CCC=C(C)C [Geranyl Propionate]
activation at 100 µM [1]: 0.09%
activation [2]: 47.9%

CC(=O)OCCc1scnc1C [4-Methyl-5-Thiazoleethanol Acetate]
activation at 100 µM [1]: 0.62%
activation [2]: 76.4%

CCc1cnccn1 [2-Ethylpyrazine]
activation at 100 µM [1]: -1.56%
activation [2]: 49.9%

CCCCCCOC(C)=O [Hexyl Acetate]
activation at 100 µM [1]: -0.01%
activation [2]: 49.1%

CCCCCOC(=O)CCC [Amyl Butyrate]
activation at 100 µM [1]: -2.64%
activation [2]: 75.9%

Cc1ncsc1CCO [4-Methyl-5-Thiazoleethanol]
activation at 100 µM [1]: 0.56%
activation [2]: 72.8%

C=CCc1cc(OC)c(O)c(OC)c1 [4-Allyl-2,6-Dimethoxyphenol]
activation at 100 µM [1]: 39.2%
activation [2]: 15.5%

COC(Cc1ccccc1)OC [Phenylacetaldehyde Dimethyl Acetal]
activation at 100 µM [1]: -14.8%
activation [2]: 81.4%

CCCCCCCC(=O)OCC [Ethyl Octanoate]
activation at 100 µM [1]: -0.14%
activation [2]: 87.3%

CC=CC(=O)C(C)CC (stereo not drawn) [5-Methyl-2-Hepten-4-one]
activation at 100 µM [1]: 15.5%
activation [2]: 87.8%

COc1ccccc1O [Guaiacol]
activation at 100 µM [1]: -0.08%
activation [2]: 87.7%

C=CC(C)(CCC=C(C)C)OC(C)=O (stereo not drawn) [Linalyl Acetate]
activation at 100 µM [1]: -0.9%
activation [2]: 77.2%

CCC1OC(=O)C(O)=C1C (stereo not drawn) [5-Ethyl-3-Hydroxy-4-Methyl-2(5H)-Furanone]
activation at 100 µM [1]: 1.79%
activation [2]: 72.5%

CCCCCCCC=O [Octanal]
activation at 100 µM [1]: -11%
activation [2]: 87.9%

CC1(C)C2CCC1(C)C(O)C2 (stereo not drawn) [Borneol]
activation at 100 µM [1]: -1.6%
activation [2]: 51%

OCc1ccccc1 [Benzyl Alcohol]
activation at 100 µM [1]: 21.4%
activation [2]: 14.6%

COc1nccnc1C [2-Methoxy-3-Methylpyrazine]
activation at 100 µM [1]: -0.83%
activation [2]: 84.7%

O=COCc1ccccc1 [Benzyl Formate]
activation [1]: -3.01%
activation [2]: 75.3%

COc1cc(C)ccc1C(C)C [thymyl methyl ether]
activation at 100 µM [1]: -0.16%
activation [2]: 108%

O=Cc1ccccc1 [Benzaldehyde]
activation at 100 µM [1]: -1.46%
activation [2]: 90.1%

COc1cc(C)cc(OC)c1O [4-Methyl-2,6-Dimethoxyphenol]
activation at 100 µM [1]: 45.9%
activation [2]: 9.25%

Cc1nccnc1C [2,3-Dimethylpyrazine]
activation at 100 µM [1]: -1.77%
activation [2]: 62.6%

CCCC/C=C/C=O [trans-2-Heptenal]
activation at 100 µM [1]: 95.9%
activation [2]: -3.74%

CC1=CCC(=C(C)C)CC1 [Terpinolene]
activation at 100 µM [1]: -17.2%
activation [2]: 76.2%

O=Cc1ccccc1O [Salicylaldehyde]
activation at 100 µM [1]: 0.01%
activation [2]: 62.5%

O=C1CCCCCCCCCCCC(=O)OCCO1 [Ethylene Brassylate]
activation at 100 µM [1]: -0.58%
activation [2]: 37.2%

CCCCCC(=O)OCC(C)C [Isobutyl Hexanoate]
activation at 100 µM [1]: -17.1%
activation [2]: 53.1%

CCC=C1OC(=O)c2ccccc21 [3-Propylidenephthalide]
activation at 100 µM [1]: 116%
activation [2]: 6.21%

CCCCCC(=Cc1ccccc1)C(OC)OC [Alpha-Amylcinnamaldehyde Dimethyl acetal]
activation at 100 µM [1]: -2.4%
activation [2]: -0.12%
